# Results as given in patent publication US20240082212A1, “USE OF MDMA FOR TREATMENT OF STRESS-RELATED DISORDERS” (priority 2022, published 2024).
# Legend:
# cortical neurons = experiment: Neurite outgrowth in embryonic rat cortical neuron cultures; type: cell-based; settings: any tested concentration (0.001 to 10000 nM), 3 days, vs vehicle
# Description: Female Wistar rats of 17 days gestation were killed by cervical dislocation and the fetuses (typically 6 to 8 in number) were removed from the uteri. Fetal brains were placed in ice-cold medium of Leibovitz (L15, Gibco, France). Cortex was dissected and meninges were carefully removed. The cortical neurons were dissociated by trypsinization (trypsin-EDTA, Gibco) in the presence of DNAse I (Roche, France). The reaction was stopped by addition of Dulbecco's Modified Eagle Medium (DMEM; Gibco) with 10% of fetal bovine serum (FBS; Gibco). The suspension was triturated with a 10-ml pipette and a 21-gauge needle syringe and centrifuged. The pellet of dissociated cells was resuspended in a medium consisting of Neurobasal (Gibco) supplemented with 2% B27 supplement (Gibco), 0.5 mM L-Glutamine (Gibco), and an antibiotic-antimycotic mixture. Viable cells were counted in a Neubauer cytometer and cells were seeded in 96-well plates (Costar) precoated with poly-L-lysine at 10,000 cells/well. […] Stock solutions were prepared in sterile water at 10 mM and stored at −20° C. until used. Further dilutions were prepared in culture in the medium on the day of the treatment. 0.1% Sterile water was present in all tested conditions.
# The experimental protocol was performed in two independent cultures (i.e., from two different pregnant rats). For each culture, each condition was tested in sextuplet (6 wells per condition per culture for a total of 12 wells per condition). […] After three days of plating and compound treatment (Day 3), cultures were fixed with paraformaldehyde in phosphate buffered saline at 4° C. (PBS, 4%, Sigma). All subsequent steps were performed at room temperature. Cells were successively permeabilized for 30 minutes using 0.1% triton, saturated with PBS containing 3% bovine serum albumin (BSA) and incubated for 1 hour with anti-beta III tubulin antibody (T5168, Sigma). […] Finally, nuclei were stained with 4′-6-diamidino-2-phenylindole (DAPI). After rinsing the cells with PBS, the plate was imaged and neurite networks were examined and analyzed using a High-Content Screening platform (CellInsight CXS, Thermo Scientific) with integrated Photometrics high-resolution fluorescent camera, Olympus objective (10×) and HCS Studio Cell Analysis Software. Approximately 2,000 neurons per well were analyzed using a validated cortex neuron outgrowth algorithm that utilizes parameters optimized for analysis of embryonic rat cortical neuron cultures. The HCS Studio Cell Analysis Software output included values for neurite total count (#), neurite total length (μm) and total number of branch points (#) for each of the 6 wells per culture. The evaluation of neurite outgrowth was performed using the average number of neurites per neuron (#), the average of total neurite length per neuron (μm) and the average number of branch points per neuron (#) across 12 wells. Data also was transformed to percent (%) of the average vehicle control value. Results were expressed as mean (±s.e.m.) of the transformed (% of vehicle control) data. Statistical analyses were performed on transformed percent of the average vehicle control data for each measure for each test article using one-way analysis of variance (Anova, StatView). Where applicable, Dunnett's test was used for multiple pairwise comparisons to the negative control (vehicle) condition. […] The level of significance was set at p value less than or equal to 0.05 (*p<0.05).
# Serotonin 5-HT1A = target: T1, Serotonin 5-HT1A (Homo sapiens, UniProt P08908); experiment: Eurofins Panlabs radioligand binding panel, serotonin 5-HT1A; settings: 10 uM
# T1 sequence (P08908 1-422): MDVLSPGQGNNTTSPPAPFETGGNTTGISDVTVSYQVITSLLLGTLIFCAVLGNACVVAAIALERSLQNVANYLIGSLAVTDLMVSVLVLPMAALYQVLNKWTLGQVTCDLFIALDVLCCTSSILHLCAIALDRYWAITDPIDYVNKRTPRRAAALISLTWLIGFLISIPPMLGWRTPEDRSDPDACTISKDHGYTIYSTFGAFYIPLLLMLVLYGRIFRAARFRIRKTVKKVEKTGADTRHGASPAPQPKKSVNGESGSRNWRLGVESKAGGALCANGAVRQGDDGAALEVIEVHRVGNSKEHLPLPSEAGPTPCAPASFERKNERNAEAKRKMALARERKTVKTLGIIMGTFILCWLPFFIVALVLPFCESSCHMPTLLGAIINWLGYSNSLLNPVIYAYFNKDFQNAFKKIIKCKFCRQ
# Serotonin 5-HT2B = Serotonin 5-HT2B (Homo sapiens, UniProt P41595); experiment: Eurofins Panlabs radioligand binding panel, serotonin 5-HT2B; settings: 10 uM
# Chain of Serotonin 5-HT2B (P41595 whole entry): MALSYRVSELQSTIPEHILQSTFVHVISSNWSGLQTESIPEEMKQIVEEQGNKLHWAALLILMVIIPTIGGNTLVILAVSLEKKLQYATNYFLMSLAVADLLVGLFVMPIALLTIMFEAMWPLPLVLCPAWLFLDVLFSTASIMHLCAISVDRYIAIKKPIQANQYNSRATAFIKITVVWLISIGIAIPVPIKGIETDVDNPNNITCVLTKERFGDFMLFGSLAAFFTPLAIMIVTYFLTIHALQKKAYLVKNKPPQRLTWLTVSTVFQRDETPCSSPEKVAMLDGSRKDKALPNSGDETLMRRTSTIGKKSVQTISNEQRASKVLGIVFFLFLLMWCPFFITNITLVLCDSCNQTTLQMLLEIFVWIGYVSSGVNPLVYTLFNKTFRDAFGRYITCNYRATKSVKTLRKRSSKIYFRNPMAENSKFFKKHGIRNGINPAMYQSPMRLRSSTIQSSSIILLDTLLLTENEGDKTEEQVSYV
# C57BL/6J mice = experiment: Head twitch response (HTR); type: in vivo, mouse; settings: 30 minutes after injection
# Protocol: Male C57BL/6J mice at 6-8 weeks of age were purchased from Jackson Laboratories and housed four per cage in a climate and humidity-controlled room in a vivarium at the University of California, San Diego. The room operated on a reverse light cycle (lights on at 1900 h, off at 0700 h) with food and water available ad libitum, except during testing. All testing was performed during 1000 h and 1800 h. After a minimum of 1 week acclimation to the housing facility, mice were anesthetized using a mixture of ketamine (100 mg/kg IP) and xylazine (10 mg/kg IP). Under deep anesthesia, an incision was made in the scalp and a small neodymium magnet (4.57 mm×4.57 mm×2.03 mm) was attached to the cranium using cyanoacrylate and dental cement. After at least a 2-week recovery period, the mouse was removed from the home cage and injected intraperitoneally with the test article or vehicle (0.9% sterile saline). Immediately, the mouse was placed in a glass cylinder surrounded by a magnetometer coil and the head twitch response (HTR) was assessed for 30 minutes (Halberstadt and Geyer, 2013). The output of the coil was recorded using a Powerlab/8SP with LabChart v.7.3.2 (ADInstruments). Coil voltage was amplified, low-pass filtered (2-10 kHz cut-off frequency) to remove interference, digitized and sampled at 20 kHz. Head twitches were identified using a validated technique based on artificial intelligence (Halberstadt, 2020). Events in the recordings were transformed into a visual representation in the time-frequency domain and deep features were extracted using the pretrained convolutional neural network ResNet-50, and the images were subsequently classified using a Support Vector Machine algorithm.
# Test articles (R,S-MDA, R(−)-MDA, S-(+)MDA), R,S-MDMA, R(−)-MDMA and S(+)-MDMA) were supplied by the NIDA Drug Supply Program as neat powders. Racemic MDA and MDMA and their enantiomers were dissolved in saline and injected IP at a volume of 5 mL/kg. Each dose was calculated based on the salt form of the compounds. For each treatment condition, six groups of mice (n=5-6/group) were treated with vehicle or the test drug (0.1, 0.3, 1, 3, or 10 mg/kg) and HTR assessed for 30 minutes immediately following injections. To avoid carryover effects, each treatment condition was performed at least seven days apart. Total number of mice used for the experiment was 63.
# [1] = Rat plasma pharmacokinetics after cumulative (QID) SC injections; settings: for Cmax: metabolite after QID SC parent (R-MDA after R-MDMA, S-MDA after S-MDMA, total MDA after Rac-MDMA)
# Adrenergic α2A = target: T2, Adrenergic α2A (Homo sapiens, UniProt P08913); experiment: Eurofins Panlabs radioligand binding panel, adrenergic α2A; settings: read-out: % inhibition of binding or activity
# T2 sequence (P08913 1-465): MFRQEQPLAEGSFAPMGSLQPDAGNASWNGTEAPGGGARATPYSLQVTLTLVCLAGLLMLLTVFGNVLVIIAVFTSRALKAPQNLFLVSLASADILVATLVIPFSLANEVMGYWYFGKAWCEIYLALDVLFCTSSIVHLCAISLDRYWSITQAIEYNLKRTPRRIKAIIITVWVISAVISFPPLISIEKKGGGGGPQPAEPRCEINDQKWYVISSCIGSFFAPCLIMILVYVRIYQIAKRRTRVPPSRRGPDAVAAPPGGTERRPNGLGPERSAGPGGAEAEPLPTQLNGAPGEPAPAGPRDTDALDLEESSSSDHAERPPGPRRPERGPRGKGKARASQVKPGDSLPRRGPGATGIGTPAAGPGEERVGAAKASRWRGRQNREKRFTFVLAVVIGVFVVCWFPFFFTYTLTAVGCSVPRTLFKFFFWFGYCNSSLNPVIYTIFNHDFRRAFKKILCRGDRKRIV
# Protocol: Each of the compounds was evaluated for binding to 87 different targets as part of a panel (Eurofins Panlabs, Taiwan, China). Each compound was tested at a single concentration of […]. The panel included mostly G-protein-couple receptors, ion channels, enzymes, transporters and nuclear receptors, expressed in the central nervous system, cardiovascular, respiratory, gastrointestinal and renal systems. A limited number of targets were of pig, rat or guinea pig origin. Targets were expressed in human recombinant cells lines, rat brain or spinal cord, guinea pig brain or pig heart. Methods were adapted from the scientific literature to maximize reliability and reproducibility. Reference standards were run as an integral part of each assay to ensure validity of the results obtained (available online at the eurofins website for the safety screen 87 panel).
# [2] = male rat plasma, metabolite after QID SC parent, total 10 mg/kg/day
# [3] = male rat plasma, metabolite after QID SC parent, total 20 mg/kg/day
structure (smiles),measurement,setting,value
"C[C@@H](N)Cc1ccc2c(c1)OCO2 [R-MDA, R(−)-MDA]",neurite number (#),cortical neurons,did not significantly alter
same,neurite total length (μm),cortical neurons,did not significantly alter
same,total number of branch points (#),cortical neurons,did not significantly alter
same,% inhibition of binding or activity,Serotonin 5-HT1A,50%
same,% inhibition of binding or activity,Serotonin 5-HT2B,88%
same,head twitch response (HTR) compared to control (vehicle),C57BL/6J mice; 1 mg/kg IP,elicited an increase in HTR
same,head twitch response (HTR) compared to control (vehicle),C57BL/6J mice; 3 mg/kg IP,elicited an increase in HTR
same,head twitch response (HTR) compared to control (vehicle),C57BL/6J mice; 10 mg/kg IP,elicited an increase in HTR
same,dose dependence of Cmax and AUC0-27 hr,"[1]; dose increase from 10 to 20 mg/kg/day of the dosed test article, QID SC",approximately dose proportional manner
same,Cmax,"[1]; male rat plasma, total 10 mg/kg/day",0.127 µg/mL
same,Cmax,"[1]; male rat plasma, total 20 mg/kg/day",0.272 µg/mL
same,AUC0-27 hr,[1]; [2],0.813 µg·h/mL
same,AUC0-27 hr/Dose,[1]; [2],81.3 *kg*ng/mL/mg
same,AUCTlast,[1]; [2],0.716 µg·h/mL
same,Cmax/Dose,[1]; [2],12.7 kg·ng/mL/mg
same,Tlast,[1]; [2],11 h
same,Tmax,[1]; [2],5 h
same,AUC0-27 hr,[1]; [3],2.41 µg·h/mL
same,AUC0-27 hr/Dose,[1]; [3],121 *kg*ng/mL/mg
same,AUCTlast,[1]; [3],1.81 µg·h/mL
same,Cmax/Dose,[1]; [3],13.6 kg·ng/mL/mg
same,T1/2,[1]; [3],2.67 h
same,Tlast,[1]; [3],11 h
same,Tmax,[1]; [3],5 h
"CC(N)Cc1ccc2c(c1)OCO2 (racemic) [Racemic MDA, 3,4-methylenedioxyamphetamine]",neurite number (#),cortical neurons,did not significantly alter
same,neurite total length (μm),cortical neurons,did not significantly alter
same,total number of branch points (#),cortical neurons,did not significantly alter
same,inhibition at 10 µM,Serotonin 5-HT2B; read-out: % inhibition of binding or activity,89%
same,inhibition at 10 µM,Adrenergic α2A,53%
same,head twitch response (HTR) compared to control (vehicle),C57BL/6J mice; 3 mg/kg IP,increased HTR
